Test system: SK-OV-3 multi-cell spheroids, viability
Assay: Anticancer human tumor SK-OV-3 cell line growth inhibition [IpAb];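 on viability, T/C: viability read after seven days of drug exposure; percent of DMSO vehicle control luminescence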
Details: for IC50: curve of first compound; for viability, T/C: stronger effect = lower value
Outline: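 Combinations with ipatasertib or abemaciclib were tested on tumour spheroids holding HUVEC (25%) and MSC (15%) alongside 60% malignant cells. Top concentration was at or near clinical Cmax (10 microM if undefined), descending in half-log steps.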

[1] = second compound 0.1 µM, first compound 0.0316 µM
[2] = second compound 0.1 µM, first compound 0.1 µM
[3] = second compound 0.316 µM, first compound 0.0316 µM
[4] = second compound 0.316 µM, first compound 0.1 µM
[5] = second compound 1 µM, first compound 0.0316 µM
[6] = second compound 1 µM, first compound 0.1 µM
[7] = second compound 3.16 µM, first compound 0.0316 µM
[8] = second compound 3.16 µM, first compound 0.1 µM
[9] = second compound 10 µM, first compound 0.0316 µM
[10] = second compound 10 µM, first compound 0.1 µM

Work on `C=CC(=O)N1CCN(c2nc(=O)n(-c3c(C)ccnc3C(C)C)c3nc(-c4c(O)cccc4F)c(F)cc23)C(C)C1` (stereo not given) + CC(C)NCC(C(=O)N1CCN(c2ncnc3c2C(C)CC3O)CC1)c1ccc(Cl)cc1 yielded an IC50 (second compound 0.1 µM) of 7190 nM, an IC50 (second compound 0.316 µM) of under 31.6 nM and an IC50 (second compound 1 µM) of under 31.6 nM. The IC50 (second compound 3.16 µM) was under 31.6 nM, the IC50 (second compound 10 µM) was under 31.6 nM and the viability, T/C [1] was 75.9%. It also gave a viability, T/C [2] of 80.2%, a viability, T/C (second compound 0.1 µM, first compound 0.316 µM) of 77.7% and a viability, T/C (second compound 0.1 µM, first compound 1 µM) of 76.3%. It also gave a viability, T/C (second compound 0.1 µM, first compound 3.16 µM) of 72.7%, a viability, T/C (second compound 0.1 µM, first compound 10 µM) of 41% and a viability, T/C [3] of 35.8%. It also gave a viability, T/C [4] of 39.4%, a viability, T/C (second compound 0.316 µM, first compound 0.316 µM) of 39.6% and a viability, T/C (second compound 0.316 µM, first compound 1 µM) of 38.7%. It also gave a viability, T/C (second compound 0.316 µM, first compound 3.16 µM) of 39.5%, a viability, T/C (second compound 0.316 µM, first compound 10 µM) of 26.2% and a viability, T/C [5] of 21.1%. The viability, T/C [6] was 19.1%, the viability, T/C (second compound 1 µM, first compound 0.316 µM) was 21.4% and the viability, T/C (second compound 1 µM, first compound 1 µM) was 23.8%. The viability, T/C (second compound 1 µM, first compound 3.16 µM) was 24.6%, the viability, T/C (second compound 1 µM, first compound 10 µM) was 16.9% and the viability, T/C [7] was 14.8%. For the same molecule, the viability, T/C [8] was 17.1%, the viability, T/C (second compound 3.16 µM, first compound 0.316 µM) was 16.4% and the viability, T/C (second compound 3.16 µM, first compound 1 µM) was 18.2%. The viability, T/C (second compound 3.16 µM, first compound 3.16 µM) was 17%, the viability, T/C (second compound 3.16 µM, first compound 10 µM) was 11.2% and the viability, T/C [9] was 9.96%. The viability, T/C [10] was 10.9%, the viability, T/C (second compound 10 µM, first compound 0.316 µM) was 10.4% and the viability, T/C (second compound 10 µM, first compound 1 µM) was 10.8%. For the same molecule, the viability, T/C (second compound 10 µM, first compound 3.16 µM) was 10.9% and the viability, T/C (second compound 10 µM, first compound 10 µM) was 6.35%.
In the case of `CC(C)(C)c1cnc(CSc2cnc(NC(=O)C3CCNCC3)s2)o1` + CC(C)NCC(C(=O)N1CCN(c2ncnc3c2C(C)CC3O)CC1)c1ccc(Cl)cc1, the IC50 (second compound 0.1 µM) is reported as 168 nM, the IC50 (second compound 0.316 µM) is reported as 118 nM and the IC50 (second compound 1 µM) is reported as under 9.49 nM. The IC50 (second compound 3.16 µM) was under 9.49 nM, the IC50 (second compound 10 µM) was under 9.49 nM and the viability, T/C (second compound 0.1 µM, first compound 0.00949 µM) was 74.8%. For the same molecule, the viability, T/C (second compound 0.1 µM, first compound 0.03 µM) was 92%, the viability, T/C (second compound 0.1 µM, first compound 0.0949 µM) was 89.1% and the viability, T/C (second compound 0.1 µM, first compound 0.3 µM) was 14.5%. For the same molecule, the viability, T/C (second compound 0.1 µM, first compound 0.949 µM) was 0.65%, the viability, T/C (second compound 0.1 µM, first compound 3 µM) was 0.75% and the viability, T/C (second compound 0.316 µM, first compound 0.00949 µM) was 49.5%. For the same molecule, the viability, T/C (second compound 0.316 µM, first compound 0.03 µM) was 50.8%, the viability, T/C (second compound 0.316 µM, first compound 0.0949 µM) was 73.7% and the viability, T/C (second compound 0.316 µM, first compound 0.3 µM) was 17.3%. It also gave a viability, T/C (second compound 0.316 µM, first compound 0.949 µM) of 0.41%, a viability, T/C (second compound 0.316 µM, first compound 3 µM) of 0.65% and a viability, T/C (second compound 1 µM, first compound 0.00949 µM) of 22.3%. It also gave a viability, T/C (second compound 1 µM, first compound 0.03 µM) of 30.2%, a viability, T/C (second compound 1 µM, first compound 0.0949 µM) of 41.9% and a viability, T/C (second compound 1 µM, first compound 0.3 µM) of 11.7%. The viability, T/C (second compound 1 µM, first compound 0.949 µM) was 0.3%, the viability, T/C (second compound 1 µM, first compound 3 µM) was 0.62% and the viability, T/C (second compound 3.16 µM, first compound 0.00949 µM) was 18%. For the same molecule, the viability, T/C (second compound 3.16 µM, first compound 0.03 µM) was 22.6%, the viability, T/C (second compound 3.16 µM, first compound 0.0949 µM) was 28.4% and the viability, T/C (second compound 3.16 µM, first compound 0.3 µM) was 9.86%. It also gave a viability, T/C (second compound 3.16 µM, first compound 0.949 µM) of 0.58%, a viability, T/C (second compound 3.16 µM, first compound 3 µM) of 0.66% and a viability, T/C (second compound 10 µM, first compound 0.00949 µM) of 11.3%. The viability, T/C (second compound 10 µM, first compound 0.03 µM) was 11.4%, the viability, T/C (second compound 10 µM, first compound 0.0949 µM) was 14.2% and the viability, T/C (second compound 10 µM, first compound 0.3 µM) was 2.96%. The viability, T/C (second compound 10 µM, first compound 0.949 µM) was 0.36% and the viability, T/C (second compound 10 µM, first compound 3 µM) was 0.65%.
Work on `Cn1ncnc1[C@H]1c2n[nH]c(=O)c3cc(F)cc(c23)N[C@@H]1c1ccc(F)cc1` + CC(C)NCC(C(=O)N1CCN(c2ncnc3c2C(C)CC3O)CC1)c1ccc(Cl)cc1 yielded an IC50 (second compound 0.1 µM) of over 100 nM, an IC50 (second compound 0.316 µM) of under 0.316 nM and an IC50 (second compound 1 µM) of under 0.316 nM. For the same molecule, the IC50 (second compound 3.16 µM) was under 0.316 nM, the IC50 (second compound 10 µM) was under 0.316 nM and the viability, T/C (second compound 0.1 µM, first compound 0.000316 µM) was 74.2%. It also gave a viability, T/C (second compound 0.1 µM, first compound 0.001 µM) of 78.8%, a viability, T/C (second compound 0.1 µM, first compound 0.00316 µM) of 60.9% and a viability, T/C (second compound 0.1 µM, first compound 0.01 µM) of 69.4%. It also gave a viability, T/C [1] of 65.4%, a viability, T/C [2] of 58.8% and a viability, T/C (second compound 0.316 µM, first compound 0.000316 µM) of 34.5%. For the same molecule, the viability, T/C (second compound 0.316 µM, first compound 0.001 µM) was 39.5%, the viability, T/C (second compound 0.316 µM, first compound 0.00316 µM) was 41.2% and the viability, T/C (second compound 0.316 µM, first compound 0.01 µM) was 38.4%. It also gave a viability, T/C [3] of 38.3%, a viability, T/C [4] of 33.2% and a viability, T/C (second compound 1 µM, first compound 0.000316 µM) of 22.9%. It also gave a viability, T/C (second compound 1 µM, first compound 0.001 µM) of 21.5%, a viability, T/C (second compound 1 µM, first compound 0.00316 µM) of 20.5% and a viability, T/C (second compound 1 µM, first compound 0.01 µM) of 20.4%. For the same molecule, the viability, T/C [5] was 20.9%, the viability, T/C [6] was 19% and the viability, T/C (second compound 3.16 µM, first compound 0.000316 µM) was 19%. For the same molecule, the viability, T/C (second compound 3.16 µM, first compound 0.001 µM) was 17.1%, the viability, T/C (second compound 3.16 µM, first compound 0.00316 µM) was 15.1% and the viability, T/C (second compound 3.16 µM, first compound 0.01 µM) was 15.4%. The viability, T/C [7] was 12.8%, the viability, T/C [8] was 16.1% and the viability, T/C (second compound 10 µM, first compound 0.000316 µM) was 10.3%. For the same molecule, the viability, T/C (second compound 10 µM, first compound 0.001 µM) was 10.1%, the viability, T/C (second compound 10 µM, first compound 0.00316 µM) was 10.3% and the viability, T/C (second compound 10 µM, first compound 0.01 µM) was 9.69%. It also gave a viability, T/C [9] of 8.59% and a viability, T/C [10] of 9.45%.

From PubChem BioAssay AID2060325 (Molecular Pharmacology Branch, DTP, NCI, 2025)
